Experimental findings from US20080234262A1 (Wyeth, priority 2007, published 2008) are described below.

The structures appear in SMILES notation.

One assay addresses PI3K (Homo sapiens, UniProt P42336). Nature of the assay: Fluorescence polarization assay for PI3K.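 Further: PI3K kinase reaction on PIP2 with ATP, 30-60 min, product sensed by GST-GRP with red probe in fluorescence polarization (mP), controls without enzyme and at zero time.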 It is filed as biochemical. The following applies: PI3Kα; read-out: PI3Kα IC50. Background: Fluorescence polarisation rises when a labelled molecule tumbles more slowly, as on binding a larger partner.
The next assay relates to prostate line LNCap. Nature of the assay: In vitro cell culture growth assay (MTS), LNCap.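 Further: viable cell density read by absorbance at 490 nm, growth expressed as percent of vehicle-treated cells on the same plate.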 The class given is cell-based, human. The following applies: Homo sapiens, LNCaP, 72 h, LNCap cells, three days after drug treatment.
The next assay relates to breast line MDA468. Nature of the assay: In vitro cell culture growth assay (MTS), MDA468. It is filed as cell-based, human. Particulars: Homo sapiens, 72 h, MDA468 cells, three days after drug treatment. The gist of the method:
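Growth measured as percent of same-plate vehicle control by MTS metabolic dye conversion (A490). Breast MDA468 and prostate LNCap cells, plated a day ahead, were exposed to compounds for 3 days.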

Sequence of PI3K (P42336 whole entry): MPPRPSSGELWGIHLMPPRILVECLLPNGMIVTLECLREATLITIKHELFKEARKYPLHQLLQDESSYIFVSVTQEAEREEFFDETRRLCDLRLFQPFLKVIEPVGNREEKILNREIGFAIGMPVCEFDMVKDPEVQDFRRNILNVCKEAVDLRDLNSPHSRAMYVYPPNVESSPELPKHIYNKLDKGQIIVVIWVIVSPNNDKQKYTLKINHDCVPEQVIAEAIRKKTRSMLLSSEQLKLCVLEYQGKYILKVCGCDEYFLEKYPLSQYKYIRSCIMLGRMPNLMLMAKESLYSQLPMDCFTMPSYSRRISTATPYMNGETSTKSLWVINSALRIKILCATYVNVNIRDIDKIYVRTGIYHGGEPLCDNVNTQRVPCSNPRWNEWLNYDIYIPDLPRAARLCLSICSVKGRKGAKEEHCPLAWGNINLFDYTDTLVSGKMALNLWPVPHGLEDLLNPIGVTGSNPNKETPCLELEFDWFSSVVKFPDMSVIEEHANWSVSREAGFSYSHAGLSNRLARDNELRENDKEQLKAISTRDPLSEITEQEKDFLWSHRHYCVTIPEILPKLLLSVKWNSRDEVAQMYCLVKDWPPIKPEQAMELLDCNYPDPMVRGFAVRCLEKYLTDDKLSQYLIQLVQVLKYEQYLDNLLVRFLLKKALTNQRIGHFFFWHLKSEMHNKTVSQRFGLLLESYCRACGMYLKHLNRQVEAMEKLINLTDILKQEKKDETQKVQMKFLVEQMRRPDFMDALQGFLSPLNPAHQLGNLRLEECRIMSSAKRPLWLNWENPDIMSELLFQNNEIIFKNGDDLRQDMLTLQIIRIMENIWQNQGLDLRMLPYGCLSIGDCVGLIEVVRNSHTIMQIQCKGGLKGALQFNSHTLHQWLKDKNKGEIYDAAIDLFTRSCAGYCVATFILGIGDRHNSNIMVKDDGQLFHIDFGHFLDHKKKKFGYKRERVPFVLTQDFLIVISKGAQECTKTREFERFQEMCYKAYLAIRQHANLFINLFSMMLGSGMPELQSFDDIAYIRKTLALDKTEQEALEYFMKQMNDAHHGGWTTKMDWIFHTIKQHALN
Sequence of PI3K (P27986 whole entry partner): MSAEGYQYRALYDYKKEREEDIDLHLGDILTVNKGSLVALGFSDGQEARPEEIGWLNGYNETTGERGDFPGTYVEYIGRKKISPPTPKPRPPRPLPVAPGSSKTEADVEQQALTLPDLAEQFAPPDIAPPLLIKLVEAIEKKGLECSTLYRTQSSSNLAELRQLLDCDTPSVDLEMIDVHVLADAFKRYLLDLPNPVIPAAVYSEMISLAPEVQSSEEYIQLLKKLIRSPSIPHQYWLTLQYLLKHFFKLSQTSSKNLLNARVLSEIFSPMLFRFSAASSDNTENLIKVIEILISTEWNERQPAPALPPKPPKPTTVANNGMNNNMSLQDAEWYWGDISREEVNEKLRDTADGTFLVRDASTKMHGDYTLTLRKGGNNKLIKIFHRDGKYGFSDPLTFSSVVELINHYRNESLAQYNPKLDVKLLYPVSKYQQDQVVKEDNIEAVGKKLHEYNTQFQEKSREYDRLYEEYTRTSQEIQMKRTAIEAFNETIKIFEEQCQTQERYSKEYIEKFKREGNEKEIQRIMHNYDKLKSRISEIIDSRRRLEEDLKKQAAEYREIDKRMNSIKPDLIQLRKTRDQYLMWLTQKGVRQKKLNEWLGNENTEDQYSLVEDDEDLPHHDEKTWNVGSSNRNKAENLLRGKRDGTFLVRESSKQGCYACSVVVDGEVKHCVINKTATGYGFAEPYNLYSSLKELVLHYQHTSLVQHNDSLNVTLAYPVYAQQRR

A word on the IC50: it is the concentration at which inhibition is half-maximal. Regarding `CNC(=O)Nc1ccc(-c2nc(N3CCOCC3)c3cnn(C4CCN(Cc5ccc(F)cc5)CC4)c3n2)cc1` [Compound 427, 1-(4-{1-[1-(4-fluorobenzyl)piperidin-4-yl]-4-morpholin-4-yl-1H-pyrazolo[3,4-d]pyrimidin-6-yl}phenyl)-3-methylurea], the results for the IC50 on PI3K, with prostate line LNCap and in the assay on breast line MDA468 were 34 nM, 27 nM and 200 nM, respectively.

For `CNC(=O)Nc1ccc(-c2nc(N3CCOCC3)c3cnn(C4CCN(Cc5cccc(F)c5)CC4)c3n2)cc1` [Compound 428, 1-(4-{1-[1-(3-fluorobenzyl)piperidin-4-yl]-4-morpholin-4-yl-1H-pyrazolo[3,4-d]pyrimidin-6-yl}phenyl)-3-methylurea], the IC50 at PI3K was found to be 30 nM; in the assay with prostate line LNCap, 27 nM; in the assay with breast line MDA468 it was 200 nM.

As for `O=C1Cc2cc(-c3nc(N4CCOCC4)c4cnn(-c5ccccc5)c4n3)ccc2N1` [Compound 433, 5-(4-morpholin-4-yl-1-phenyl-1H-pyrazolo[3,4-d]pyrimidin-6-yl)-1,3-dihydro-2H-indol-2-one], the IC50 stood at 1030 nM at PI3K, 60000 nM in the assay on prostate line LNCap and 60000 nM in the assay on breast line MDA468.

Turning to `Nc1ccnc(-c2nc(N3CCOCC3)c3cnn(C4CCN(C(=O)c5cccnc5)CC4)c3n2)c1` [Compound 434, 2-{4-morpholin-4-yl-1-[1-(pyridin-3-ylcarbonyl)piperidin-4-yl]-1H-pyrazolo[3,4-d]pyrimidin-6-yl}pyridin-4-amine], the 50% inhibitory concentration (IC50) on PI3K came out at 6660 nM; with prostate line LNCap, 39000 nM; with breast line MDA468 it was 60000 nM.

For `Nc1ccc(-c2nc(N3CCOCC3)c3cnn(C4CCN(C(=O)c5cccnc5)CC4)c3n2)nc1` [Compound 435, 6-{4-morpholin-4-yl-1-[1-(pyridin-3-ylcarbonyl)piperidin-4-yl]-1H-pyrazolo[3,4-d]pyrimidin-6-yl}pyridin-3-amine], the figures for the half-maximal inhibitory concentration (IC50) on PI3K, in the assay with prostate line LNCap and with breast line MDA468 were 4040 nM, 45000 nM and 60000 nM, respectively.

Take `Nc1cccc(-c2nc(N3CCOCC3)c3cnn(C4CCN(C(=O)c5cccnc5)CC4)c3n2)n1` [Compound 436, 6-{4-morpholin-4-yl-1-[1-(pyridin-3-ylcarbonyl)piperidin-4-yl]-1H-pyrazolo[3,4-d]pyrimidin-6-yl}pyridin-2-amine]: the results for the IC50 at PI3K, in the assay with prostate line LNCap and in the assay on breast line MDA468 were 4990 nM, 9800 nM and 25000 nM, respectively.

On to `Nc1ccnc(-c2nc(N3CCOCC3)c3cnn(-c4ccccc4)c3n2)c1` [Compound 437, 2-(4-morpholin-4-yl-1-phenyl-1H-pyrazolo[3,4-d]pyrimidin-6-yl)pyridin-4-amine], for which the values for the IC50 on PI3K, in the assay on prostate line LNCap and in the assay on breast line MDA468 were 1460 nM, 60000 nM and 60000 nM, respectively.

Take `COC(=O)Nc1ccc(-c2nc(N3CCOCC3)c3cnn(C4CCN(C(=O)N5CCN(C)CC5)CC4)c3n2)cc1` [Compound 448, methyl [4-(1-{1-[(4-methylpiperazin-1-yl)carbonyl]piperidin-4-yl}-4-morpholin-4-yl-1H-pyrazolo[3,4-d]pyrimidin-6-yl)phenyl]carbamate]: the values for the IC50 at PI3K, in the assay on prostate line LNCap and in the assay on breast line MDA468 were 725 nM, 900 nM and 1700 nM, respectively.

Regarding `COC(=O)Nc1ccc(-c2nc(N3CCOCC3)c3cnn(C4CCN(Cc5ccc(F)cc5)CC4)c3n2)cc1` [Compound 450, methyl (4-{1-[1-(4-fluorobenzyl)piperidin-4-yl]-4-morpholin-4-yl-1H-pyrazolo[3,4-d]pyrimidin-6-yl}phenyl)carbamate], the IC50 on PI3K worked out at 750 nM; in the assay with prostate line LNCap, 1200 nM; with breast line MDA468, 2600 nM.

For the compound `COC(=O)Nc1ccc(-c2nc(N3CCOCC3)c3cnn(C4CCN(Cc5ccc(Cl)cc5)CC4)c3n2)cc1` [Compound 451, methyl (4-{1-[1-(4-chlorobenzyl)piperidin-4-yl]-4-morpholin-4-yl-1H-pyrazolo[3,4-d]pyrimidin-6-yl}phenyl)carbamate], the half-maximal inhibitory concentration (IC50) was 389 nM on PI3K, 2000 nM with prostate line LNCap and 9000 nM in the assay on breast line MDA468.
